Measured values from US10189816B2, “Substituted pyridines as inhibitors of human immunodeficiency virus replication” (priority 2015, dated 2019).
Where two headings read alike, the source gives them in different places.

System: NL-RLuc virus
Test: Inhibition of HIV replication (NL-RLuc reporter virus in MT-2 cells, luciferase readout)
Format: cell-based
Details: Human immunodeficiency virus 1, MT2, 120 h
Description: Inhibition of HIV replication: A recombinant NL-RLuc proviral clone was constructed in which a section of the nef gene from NL4-3 was replaced with the Renilla Luciferase gene. This virus is fully infectious and can undergo multiple cycles of replication in cell culture. In addition, the luciferous reporter provides a simple and easy method for quantitating the extent of virus growth and consequently, the antiviral activity of test compounds. The plasmid pNLRLuc contains the proviral NL-Rluc DNA cloned into pUC18 at the PvuII site. The NL-RLuc virus was prepared by transfection of 293T cells with the plasmid pNLRLuc. Transfections were performed using the LipofectAMINE PLUS kit from Invitrogen (Carlsbad, Calif.) according to the manufacturer and the virus generated was titered in MT-2 cells. For susceptibility analyses, the titrated virus was used to infect MT-2 cells in the presence of compound, and after 5 days of incubation, cells were processed and quantitated for virus growth by the amount of expressed luciferase. Assay media was RPMI 1640 supplemented with 10% heat inactivated fetal bovine serum (FBS), 100 units/ml penicillin G/100 units/ml streptomycin, 10 mM HEPES buffer pH 7.55 and 2 mM L-glutamine. The results from at least 2 experiments were used to calculate the EC50 values. Luciferase was quantitated using the Dual Luciferase kit from Promega (Madison, Wis.). Susceptibility of viruses to compounds was determined by incubation in the presence of serial dilutions of the compound. The 50% effective concentration (EC50) was calculated by using the exponential form of the median effect equation where (Fa)=1/[1+(ED50/drug conc.)^m] (Johnson V A, Byington R T. Infectivity Assay. In Techniques in HIV Research. ed. Aldovini A, Walker B D. 71-76. New York: Stockton Press.1990). Activity equal to A refers to a compound having an EC50≤100 nM, while B and C denote compounds having an EC50 between 100 nM and 1 uM (B) or >1 uM (C).

Structure (SMILES) | EC50 (read-out: Activity) [µM] | EC50 (read-out: EC50 μM) [µM]
Cc1nc(C)c([C@H](OC(C)(C)C)C(=O)O)c(N2CCC(C)(C)CC2)c1-c1ccc2c(c1)CCN(Cc1cccc(-c3ccccc3)c1)C2 [Compound 11, (S)-2-(5-(2-([1,1′-biphenyl]-3-ylmethyl)-1,2,3,4-tetrahydroisoquinolin-6-yl)-4-(4,4-dimethylpiperidin-1-yl)-2,6-dimethylpyridin-3-yl)-2-(tert-butoxy)acetic acid] | < 0.1 | 
Cc1nc(C)c([C@H](OC(C)(C)C)C(=O)O)c(N2CCC(C)(C)CC2)c1-c1ccc2c(c1)CCN(Cc1ccccc1C(F)(F)F)C2 [Compound 12, (S)-2-(tert-butoxy)-2-(4-(4,4-dimethylpiperidin-1-yl)-2,6-dimethyl-5-(2-(2-(trifluoromethyl)benzyl)-1,2,3,4-tetrahydroisoquinolin-6-yl)pyridin-3-yl)acetic acid] | < 0.1 | 
Cc1nc(C)c([C@H](OC(C)(C)C)C(=O)O)c(N2CCC(C)(C)CC2)c1-c1ccc2c(c1)CCN(C(C)c1ccccc1)C2 (stereo partly drawn) [Compound 13, (2S)-2-(tert-butoxy)-2-(4-(4,4-dimethylpiperidin-1-yl)-2,6-dimethyl-5-(2-(1-phenylethyl)-1,2,3,4-tetrahydroisoquinolin-6-yl)pyridin-3-yl)acetic acid] | < 0.1 | 
Cc1nc(C)c([C@H](OC(C)(C)C)C(=O)O)c(N2CCC(C)(C)CC2)c1-c1ccc2c(c1)CCN(Cc1ccc(-c3ccccc3)cc1)C2 [Compound 14, (S)-2-(5-(2-([1,1′-biphenyl]-4-ylmethyl)-1,2,3,4-tetrahydroisoquinolin-6-yl)-4-(4,4-dimethylpiperidin-1-yl)-2,6-dimethylpyridin-3-yl)-2-(tert-butoxy)acetic acid] | < 0.1 | 0.034
Cc1nc(C)c([C@H](OC(C)(C)C)C(=O)O)c(N2CCC(C)(C)CC2)c1-c1ccc2c(c1)CCN(Cc1cccc(C(F)(F)F)c1C)C2 [Compound 15, (S)-2-(tert-butoxy)-2-(4-(4,4-dimethylpiperidin-1-yl)-2,6-dimethyl-5-(2-(2-methyl-3-(trifluoromethyl)benzyl)-1,2,3,4-tetrahydroisoquinolin-6-yl)pyridin-3-yl)acetic acid] | < 0.1 | 
Cc1ccc(CN2CCc3cc(-c4c(C)nc(C)c([C@H](OC(C)(C)C)C(=O)O)c4N4CCC(C)(C)CC4)ccc3C2)cc1C(F)(F)F [Compound 16, (S)-2-(tert-butoxy)-2-(4-(4,4-dimethylpiperidin-1-yl)-2,6-dimethyl-5-(2-(4-methyl-3-(trifluoromethyl)benzyl)-1,2,3,4-tetrahydroisoquinolin-6-yl)pyridin-3-yl)acetic acid] | < 0.1 | 
Cc1ccc(CN2CCc3cc(-c4c(C)nc(C)c([C@H](OC(C)(C)C)C(=O)O)c4N4CCC(C)(C)CC4)ccc3C2)cc1F [Compound 18, (S)-2-(tert-butoxy)-2-(4-(4,4-dimethylpiperidin-1-yl)-5-(2-(3-fluoro-4-methylbenzyl)-1,2,3,4-tetrahydroisoquinolin-6-yl)-2,6-dimethylpyridin-3-yl)acetic acid] | < 0.1 | 
Cc1ccc(CN2CCc3cc(-c4c(C)nc(C)c([C@H](OC(C)(C)C)C(=O)O)c4N4CCC(C)(C)CC4)ccc3C2)c(C)c1 [Compound 19, (S)-2-(tert-butoxy)-2-(5-(2-(2,4-dimethylbenzyl)-1,2,3,4-tetrahydroisoquinolin-6-yl)-4-(4,4-dimethylpiperidin-1-yl)-2,6-dimethylpyridin-3-yl)acetic acid] | < 0.1 | 
Cc1nc(C)c([C@H](OC(C)(C)C)C(=O)O)c(N2CCC(C)(C)CC2)c1-c1ccc2c(c1)CCN(Cc1ccc(F)cc1F)C2 [Compound 20, (S)-2-(tert-butoxy)-2-(5-(2-(2,4-difluorobenzyl)-1,2,3,4-tetrahydroisoquinolin-6-yl)-4-(4,4-dimethylpiperidin-1-yl)-2,6-dimethylpyridin-3-yl)acetic acid] | < 0.1 | 
Cc1nc(C)c([C@H](OC(C)(C)C)C(=O)O)c(N2CCC(C)(C)CC2)c1-c1ccc2c(c1)CCN(Cc1cccc(F)c1F)C2 [Compound 21, (S)-2-(tert-butoxy)-2-(5-(2-(2,3-difluorobenzyl)-1,2,3,4-tetrahydroisoquinolin-6-yl)-4-(4,4-dimethylpiperidin-1-yl)-2,6-dimethylpyridin-3-yl)acetic acid] | < 0.1 | 
Cc1nc(C)c([C@H](OC(C)(C)C)C(=O)O)c(N2CCC(C)(C)CC2)c1-c1ccc2c(c1)CCN(Cc1ccc(Cl)c(F)c1)C2 [Compound 22, (S)-2-(tert-butoxy)-2-(5-(2-(4-chloro-3-fluorobenzyl)-1,2,3,4-tetrahydroisoquinolin-6-yl)-4-(4,4-dimethylpiperidin-1-yl)-2,6-dimethylpyridin-3-yl)acetic acid] | < 0.1 | 
Cc1cccc(Cl)c1CN1CCc2cc(-c3c(C)nc(C)c([C@H](OC(C)(C)C)C(=O)O)c3N3CCC(C)(C)CC3)ccc2C1 [Compound 23, (S)-2-(tert-butoxy)-2-(5-(2-(2-chloro-6-methylbenzyl)-1,2,3,4-tetrahydroisoquinolin-6-yl)-4-(4,4-dimethylpiperidin-1-yl)-2,6-dimethylpyridin-3-yl)acetic acid] | < 0.1 | 0.003
Cc1nc(C)c([C@H](OC(C)(C)C)C(=O)O)c(N2CCC(C)(C)CC2)c1-c1ccc2c(c1)CCN(Cc1ccc(F)c(Cl)c1)C2 [Compound 24, (S)-2-(tert-butoxy)-2-(5-(2-(3-chloro-4-fluorobenzyl)-1,2,3,4-tetrahydroisoquinolin-6-yl)-4-(4,4-dimethylpiperidin-1-yl)-2,6-dimethylpyridin-3-yl)acetic acid] | < 0.1 | 
Cc1cc(F)ccc1CN1CCc2cc(-c3c(C)nc(C)c([C@H](OC(C)(C)C)C(=O)O)c3N3CCC(C)(C)CC3)ccc2C1 [Compound 25, (S)-2-(tert-butoxy)-2-(4-(4,4-dimethylpiperidin-1-yl)-5-(2-(4-fluoro-2-methylbenzyl)-1,2,3,4-tetrahydroisoquinolin-6-yl)-2,6-dimethylpyridin-3-yl)acetic acid] | < 0.1 | 
Cc1nc(C)c([C@H](OC(C)(C)C)C(=O)O)c(N2CCC(C)(C)CC2)c1-c1ccc2c(c1)CCN(Cc1cc(Cl)cc(Cl)c1)C2 [Compound 26, (S)-2-(tert-butoxy)-2-(5-(2-(3,5-dichlorobenzyl)-1,2,3,4-tetrahydroisoquinolin-6-yl)-4-(4,4-dimethylpiperidin-1-yl)-2,6-dimethylpyridin-3-yl)acetic acid] | < 0.1 | 
Cc1nc(C)c([C@H](OC(C)(C)C)C(=O)O)c(N2CCC(C)(C)CC2)c1-c1ccc2c(c1)CCN(Cc1ccc(C(C)(C)C)cc1)C2 [Compound 27, (S)-2-(tert-butoxy)-2-(5-(2-(4-(tert-butyl)benzyl)-1,2,3,4-tetrahydroisoquinolin-6-yl)-4-(4,4-dimethylpiperidin-1-yl)-2,6-dimethylpyridin-3-yl)acetic acid] | < 0.1 | 
Cc1nc(C)c([C@H](OC(C)(C)C)C(=O)O)c(N2CCC(C)(C)CC2)c1-c1ccc2c(c1)CCN(Cc1cccc(Cl)c1)C2 [Compound 28, (S)-2-(tert-butoxy)-2-(5-(2-(3-chlorobenzyl)-1,2,3,4-tetrahydroisoquinolin-6-yl)-4-(4,4-dimethylpiperidin-1-yl)-2,6-dimethylpyridin-3-yl)acetic acid] | < 0.1 | 
Cc1ccc(C)c(CN2CCc3cc(-c4c(C)nc(C)c([C@H](OC(C)(C)C)C(=O)O)c4N4CCC(C)(C)CC4)ccc3C2)c1 [Compound 29, (S)-2-(tert-butoxy)-2-(5-(2-(2,5-dimethylbenzyl)-1,2,3,4-tetrahydroisoquinolin-6-yl)-4-(4,4-dimethylpiperidin-1-yl)-2,6-dimethylpyridin-3-yl)acetic acid] | < 0.1 | 
Cc1nc(C)c([C@H](OC(C)(C)C)C(=O)O)c(N2CCC(C)(C)CC2)c1-c1ccc2c(c1)CCN(Cc1c(F)cccc1C(F)(F)F)C2 [Compound 30, (S)-2-(tert-butoxy)-2-(4-(4,4-dimethylpiperidin-1-yl)-5-(2-(2-fluoro-6-(trifluoromethyl)benzyl)-1,2,3,4-tetrahydroisoquinolin-6-yl)-2,6-dimethylpyridin-3-yl)acetic acid] | < 0.1 | 
Cc1nc(C)c([C@H](OC(C)(C)C)C(=O)O)c(N2CCC(C)(C)CC2)c1-c1ccc2c(c1)CCN(Cc1cc(F)cc(F)c1)C2 [Compound 31, (S)-2-(tert-butoxy)-2-(5-(2-(3,5-difluorobenzyl)-1,2,3,4-tetrahydroisoquinolin-6-yl)-4-(4,4-dimethylpiperidin-1-yl)-2,6-dimethylpyridin-3-yl)acetic acid] | < 0.1 | 0.011
Cc1nc(C)c([C@H](OC(C)(C)C)C(=O)O)c(N2CCC(C)(C)CC2)c1-c1ccc2c(c1)CCN(Cc1cccc(C(F)(F)F)c1F)C2 [Compound 32, (S)-2-(tert-butoxy)-2-(4-(4,4-dimethylpiperidin-1-yl)-5-(2-(2-fluoro-3-(trifluoromethyl)benzyl)-1,2,3,4-tetrahydroisoquinolin-6-yl)-2,6-dimethylpyridin-3-yl)acetic acid] | < 0.1 | 
